From US5047406A, “Substituted cyclohexanols as central nervous system agents” (Warner-Lambert Co., priority 1990, dated 1991) come the findings set out here.

pIC50: −log10 of the molar value. Read-outs that look alike come from different tables or passages of the source.

Assay [1] has as its target T1, [^3 H]-Spiroperidol Binding (Homo sapiens, UniProt P14416).
T1 construct: receptor assay described by D. Grigoriadis and P. Seeman, Journal of Neurochemistry, Volume 44, pages 1925-1935 (1985); from tissue
Put plainly: Inhibition of [^3 H]-spiroperidol binding in a receptor assay. From the text: (§1) The above test methods are incorporated herein by reference.

Assay [2] concerns Locomotor Activity in Mice. Description: Inhibition of locomotor activity in mice. It is filed as in vivo. Conditions: for Inhibition of Locomotor Activity in Mice ED50: IP; for ED50: Mus musculus, ip.
Text: as §1

Setting [3] is: read-out: Inhibition of [^3 H]-Spiroperidol Binding IC50.

T1 sequence (P14416 whole entry): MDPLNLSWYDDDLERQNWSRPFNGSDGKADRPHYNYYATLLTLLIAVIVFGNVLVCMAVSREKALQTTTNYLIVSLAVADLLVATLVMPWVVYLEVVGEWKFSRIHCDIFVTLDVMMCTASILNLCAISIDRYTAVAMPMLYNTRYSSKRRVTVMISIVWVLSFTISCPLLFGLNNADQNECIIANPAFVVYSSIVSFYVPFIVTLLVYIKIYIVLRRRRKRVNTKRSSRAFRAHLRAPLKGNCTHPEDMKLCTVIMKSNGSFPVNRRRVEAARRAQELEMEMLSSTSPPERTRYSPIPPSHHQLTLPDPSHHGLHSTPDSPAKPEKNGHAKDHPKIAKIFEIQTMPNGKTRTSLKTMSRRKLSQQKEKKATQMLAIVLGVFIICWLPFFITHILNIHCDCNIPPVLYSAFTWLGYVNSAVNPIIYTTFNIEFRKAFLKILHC

As usually defined, the pIC50 is the negative decadic logarithm of the IC50, by convention in mol/L. For the compound `OC1(c2ccc(Cl)cc2)CCC(N2CCN(c3ccccn3)CC2)CC1` (stereo not drawn) [Example 1, trans-1-(4-Chlorophenyl)-4-[4-(2-pyridinyl)-1-piperazinyl]cyclohexanol], the pIC50 in assay [1] (setting [3]) was 6.48. Also, the “Inhibition of Locomotor Activity in Mice ED50” value (shortened to “Inhibition”) in assay [2] was found to be 2.3 mg/kg.

For `OC1(c2ccc(Cl)cc2)CCC(N2CCN(c3ccccn3)CC2)CC1` (stereo not drawn) [Example 1a, cis-1-(4-Chlorophenyl)-4-[4-(2-pyridinyl)-1-piperazinyl]cyclohexanol], the pIC50 in assay [1] (setting [3]) was 6.09. Moreover, the “Inhibition” value in assay [2] is 0.86 mg/kg.

The ED50 is the dose at which the effect has come halfway, by size or by number of responders. Read a high ED50 as a need for a large dose. As for `OC1(c2ccccn2)CCC(CCN2CCN(c3ccccn3)CC2)CC1` (stereo not shown) [Example 6, 1-(2-Pyridinyl)-4-[2-[4-(2-pyridinyl)-1-piperazinyl]ethyl]cyclohexanol], in assay [1] (setting [3]), the pIC50 is 5.98. The compound further came in with an ED50 in assay [2] of 0.34 mg/kg.

On to `OC1(c2nccs2)CCC(CCN2CCN(c3ccccn3)CC2)CC1` (stereo not shown) [Example 9, 4-[2-[4-(2-Pyridinyl)-1-piperazinyl]ethyl]-1-(2-thiazolyl)cyclohexanol], for which the pIC50 in assay [1] (setting [3]) was 5.81. Also, in assay [2], the 50% effect level (ED50) was put at a dose of 1 mg/kg.

As for `OC1(c2cccnc2)CCC(CCN2CCN(c3ccccn3)CC2)CC1` (stereo not shown) [Example 10, 1-(3-Pyridinyl)-4-[2-[4-(2-pyridinyl)-1-piperazinyl]ethyl]cyclohexanol], the pIC50 in assay [1] (setting [3]) was 6.07. In assay [2], this compound gave an ED50 of 0.37 mg/kg.

For the compound `OC1(c2cccs2)CCC(CCN2CC=C(c3ccccc3)CC2)CC1` (stereo not drawn) [Example 13, cis-4-[2-(3,6-Dihydro-4-phenyl-1(2H)-pyridinyl)ethyl]-1-(2-thienyl)cyclohexanol], the pIC50 in assay [1] (Inhibition of [^3 H]-Spiroperidol Binding IC50) was 7.29. In assay [2], this compound gave an ED50 of 2 mg/kg.

In turn, `OC1(c2cccs2)CCC(CN2CCN(c3ccccn3)CC2)CC1` (stereo not drawn) [Example 16, trans-4-[[4-(2-Pyridinyl)-1-piperazinyl]methyl]-1-(2-thienyl)cyclohexanol] yielded an ED50 in assay [2] of 4.3 mg/kg.

As for `OC1(c2cccs2)CCC(CN2CCN(c3ccccn3)CC2)CC1` (stereo not drawn) [Example 17, cis-4-[[4-(2-Pyridinyl)-1-piperazinyl]methyl]-1-(2-thienyl)cyclohexanol], in assay [1] (setting [3]), the pIC50 is 5.41. Also, the “Inhibition” value in assay [2] was determined as 5.2 mg/kg.

For `OC1(c2ccccn2)CCC(N2CCN(c3ncccn3)CC2)CC1` (stereo not drawn) [Example 18, trans-1-(2-Pyridinyl)-4-[4-(2-pyrimidinyl)-1-piperazinyl]cyclohexanol], the “Inhibition” value in assay [2] is reported as over 30 mg/kg.

In the case of `OC1(c2ccccn2)CCC(N2CCN(c3ncccn3)CC2)CC1` (stereo not drawn) [Example 19, cis-1-(2-Pyridinyl)-4-[4-(2-pyrimidinyl)-1-piperazinyl]cyclohexanol], the “Inhibition” value in assay [2] came to 13.0 mg/kg.

As to `OC1(c2ccccn2)CCC(N2CCN(c3ccccn3)CC2)CC1` (stereo not drawn) [Example 20, trans-1-(2-Pyridinyl)-4-[4-(2-pyridinyl)-1-piperazinyl]cyclohexanol], in assay [2], the “Inhibition” value is listed as over 30 mg/kg.

Turning to `OC1(c2ccccn2)CCC(N2CCN(c3ccccn3)CC2)CC1` (stereo not drawn) [Example 21, cis-1-(2-Pyridinyl)-4-[4-(2-pyridinyl)-1-piperazinyl]cyclohexanol], the pIC50 in assay [1] (setting [3]) was 5.56. For the same compound, the “Inhibition” value in assay [2] is reported as 2.3 mg/kg.

Consider `OC1(c2cccnc2)CCC(N2CCN(c3ccccn3)CC2)CC1` (stereo not drawn) [Example 22, trans-1-(3-Pyridinyl)-4-[4-(2-pyridinyl)-1-piperazinyl]cyclohexanol], for which, in assay [1] (setting [3]), the pIC50 was 4.90. For the same compound, in assay [2], the “Inhibition” value is on record as 30 mg/kg.

Consider `OC1(c2cccnc2)CCC(N2CCN(c3ccccn3)CC2)CC1` (stereo not drawn) [Example 23, cis-1-(3-Pyridinyl)-4-[4-(2-pyridinyl)-1-piperazinyl]cyclohexanol], for which the pIC50 in assay [1] (setting [3]) is 5.94. For the same compound, in assay [2], the “Inhibition” value was 1.6 mg/kg.

As for `OC1(c2cccs2)CCC(N2CCN(c3ccccn3)CC2)CC1` (stereo not shown) [Example 24, 4-[4-(2-Pyridinyl)-1-piperazinyl]-1-(2-thienyl)cyclohexanol], the ED50 in assay [2] is over 30 mg/kg.

On to `OC1(c2ccsc2)CCC(N2CCN(c3ccccn3)CC2)CC1` (stereo not shown) [Example 25, 4-[4-(2-Pyridinyl)-1-piperazinyl]-1-(3-thienyl)cyclohexanol], for which the pIC50 in assay [1] (setting [3]) was 5.57. This compound had an ED50 in assay [2] of 2.4 mg/kg.

On to `COc1ccc(C2(O)CCC(N3CCN(c4ccccn4)CC3)CC2)cc1` (stereo not shown) [Example 26, 1-(4-Methoxyphenyl)-4-[4-(2-pyridinyl)-1-piperazinyl]cyclohexanol], for which, in assay [1] (setting [3]), the pIC50 was 6.17. For the same compound, the ED50 in assay [2] was determined as 0.3 mg/kg.

With `OC1(c2ccccc2)CCC(N2CCN(c3ccccn3)CC2)CC1` (stereo not shown) [Example 27, 1-Phenyl-4-[4-(2-pyridinyl)-1-piperazinyl]cyclohexanol], the negative logarithm of the IC50 (pIC50) in assay [1] (setting [3]) is 5.78. In assay [2], this compound showed an ED50 of 0.83 mg/kg.

`OC1(c2ccccn2)CCC(N2CC=C(c3ccccc3)CC2)CC1` (stereo not shown) [Example 28, 4-(3,6-Dihydro-4-phenyl-1(2H)-pyridinyl)-1-(2-pyridinyl)cyclohexanol] returned an ED50 in assay [2] of 1.8 mg/kg.

Take `OC1(c2cccnc2)CCC(N2CC=C(c3ccccc3)CC2)CC1` (stereo not drawn) [Example 29, trans-4-(3,6-Dihydro-4-phenyl-1(2H)-pyridinyl)-1-(3-pyridinyl)cyclohexanol]: the “Inhibition” value in assay [2] is on record as 25.6 mg/kg.

In the case of `OC1(c2cccnc2)CCC(N2CC=C(c3ccccc3)CC2)CC1` (stereo not drawn) [Example 30, cis-4-(3,6-Dihydro-4-phenyl-1(2H)-pyridinyl)-1-(3-pyridinyl)cyclohexanol], the pIC50 in assay [1] (setting [3]) is 5.90. Also, the “Inhibition” value in assay [2] stood at 1.3 mg/kg.

On to `COc1ccccc1C(=O)N[C@H]1CC[C@H](N2CCN(c3ccccn3)CC2)CC1` [Example 41, trans N-[4-[4-(2-Pyridinyl)-1-piperazinyl]cyclohexyl]-2-methoxybenzamide], for which the negative-log IC50 (pIC50) in assay [1] (setting [3]) is 6.28. Moreover, the ED50 in assay [2] was 1.9 mg/kg.

`O=C(N[C@H]1CC[C@H](N2CCN(c3ccccn3)CC2)CC1)c1ccc(Cl)cc1` [Example 43, trans 4-Chloro-N-[4-[4-(2-pyridinyl)-1-piperazinyl]cyclohexyl]benzamide]: the pIC50 in assay [1] (setting [3]) is 5.11. In assay [2], this compound gave an ED50 of 0.78 mg/kg.

For `O=C(N[C@H]1CC[C@H](N2CCN(c3ccccn3)CC2)CC1)c1cccs1` [Example 44, trans N-[4-[4-(2-Pyridinyl)-1-piperazinyl]cyclohexyl]-2-thiophenecarboxamide], in assay [1] (setting [3]), the pIC50 was 5.60. For the same compound, the ED50 in assay [2] turned out to be 0.29 mg/kg.

As for `O=C(N[C@H]1CC[C@H](N2CC=C(c3ccccc3)CC2)CC1)C1CCCCC1` [Example 50, trans N-[4-(3,6-Dihydro-4-phenyl-1(2H)-pyridinyl)cyclohexyl]cyclohexanecarboxamide], the pIC50 in assay [1] (setting [3]) was 5.80. In assay [2], this compound returned a 50% effective dose (ED50) of 1.1 mg/kg.

With `Cc1ccc(C(=O)N[C@H]2CC[C@@H](CCN3CCN(c4ccccn4)CC3)CC2)cc1` [Example 55, cis 4-Methyl-N-[4-[2-[4-(2-pyridinyl)-1-piperazinyl]ethyl]cyclohexyl]benzamide], in assay [1] (setting [3]), the pIC50 was 6.08.

In the case of `O=C(N[C@H]1CC[C@@H](CCN2CC=C(c3ccccc3)CC2)CC1)c1ccccc1` [Example 69, cis N-[4-[2-(3,6-Dihydro-4-phenyl-1(2H)-pyridinyl)ethyl]cyclohexyl]benzamide], in assay [2], the 50% effect level (ED50) was put at a dose of 2.1 mg/kg.

For the compound `O=C(N[C@H]1CC[C@@H](CCN2CC=C(c3ccccc3)CC2)CC1)c1cccs1` [Example 70, cis N-[4-[2-(3,6-Dihydro-4-phenyl-1(2H)-pyridinyl)ethyl]cyclohexyl]-2-thiophenecarboxamide], in assay [1] (setting [3]), the pIC50 is 6.55.
